Measured values reported in ChEMBL document CHEMBL4376868, “Structure-Activity Relationship Study of Novel 6-Aryl-2-benzoyl-pyridines as Tubulin Polymerization Inhibitors with Potent Antiproliferative Properties” (J Med Chem, 2020).

Experiments:
Assay type in all cases: functional, cell-based
MDA-MB-231 = test: Antiproliferative activity against human MDA-MB-231 cells measured after 72 hrs by MTS assay; settings: MDA-MB-231, 72 h
M14 = test: Antiproliferative activity against human M14 cells measured after 72 hrs by MTS assay; settings: M14, 72 h
A-375 = test: Antiproliferative activity against human A375 cells measured after 72 hrs by MTS assay; settings: A-375, 72 h
SK-BR-3 = test: Antiproliferative activity against human SK-BR-3 cells measured after 72 hrs by MTS assay; settings: SK-BR-3, 72 h
MDA-MB-453 = test: Antiproliferative activity against human MDA-MB-453 cells measured after 72 hrs by MTS assay; settings: MDA-MB-453, 72 h
RPMI-7951 = test: Antiproliferative activity against human RPMI7951 cells measured after 72 hrs by MTS assay; settings: RPMI-7951, 72 h

SMILES | IC50 (MDA-MB-231) | IC50 (M14) | IC50 (A-375) | IC50 (SK-BR-3) | IC50 (MDA-MB-453) | IC50 (RPMI-7951)
COc1cc(C(=O)c2cccc(-c3ccc(C(N)=O)cc3)n2)cc(OC)c1OC | 39.2 nM | 47.9 nM | 87.4 nM | 66.5 nM | 76.3 nM | 36.3 nM
COc1cc(C(=O)c2cccc(-c3ccsc3)n2)cc(OC)c1OC | 35.5 nM | 28.3 nM | 34.1 nM | 67.3 nM | 38.5 nM | 27.9 nM
COc1cc(C(=O)c2cc(-c3ccc(C)cc3)ccn2)cc(OC)c1OC | 35.2 nM | 16.3 nM | 15.6 nM | 12 nM | 7.1 nM | 19.8 nM
COc1cc(C(=O)c2cccc(-c3ccc(F)cc3)n2)cc(OC)c1OC | 20.7 nM | 15.4 nM | 25 nM | 36.6 nM | 21.4 nM | 23.2 nM
COc1cc(C(=O)c2cccc(-c3ccc4[nH]ccc4c3)n2)cc(OC)c1OC | 17.7 nM | 6.7 nM | 7 nM | 14.9 nM | 14.9 nM | 7.4 nM
COc1cccc(-c2cccc(C(=O)c3cc(OC)c(OC)c(OC)c3)n2)c1 | 41.4 nM | 34.7 nM | 41.3 nM | 42.4 nM | 24.5 nM | 42.3 nM
COc1cc(C(=O)c2cccc(-c3cccnc3)n2)cc(OC)c1OC | 66.5 nM | 55.3 nM | 60.1 nM | 109 nM | 102 nM | 51.9 nM
COc1cc(C(=O)c2cc(C)cc(-c3ccc(C)c(O)c3)n2)cc(OC)c1OC | 17.2 nM | 22.3 nM | 18.1 nM | 15 nM | 17.8 nM | 17.1 nM
C=C(c1cc(OC)c(OC)c(OC)c1)c1cccc(-c2ccc(C)cc2)n1 | 159 nM | 167 nM | 207 nM | 186 nM | 155 nM | 154 nM
COc1cc(C(=O)c2cccc(-c3ccc(C#N)cc3)n2)cc(OC)c1OC | 28.1 nM | 12.8 nM | 12.3 nM | 12.3 nM | 10.6 nM | 11.9 nM
COc1cc(C(=O)c2cccc(-c3ccc(C)c(F)c3)n2)cc(OC)c1OC | 6.5 nM | 6.7 nM | 5.9 nM | 4.4 nM | 6.5 nM | 5.6 nM
COc1cc(C(=O)c2cccc(-c3cccc(O)c3)n2)cc(OC)c1OC | 41.4 nM | 31.4 nM | 35.8 nM | 101 nM | 29.1 nM | 29.9 nM
COc1cc(C(=O)c2cccc(-c3ccc(C)c(O)c3)c2)cc(OC)c1OC | 35.9 nM | 16.2 nM | 27.4 nM | 20 nM | 15.6 nM | 15.7 nM
COc1cc(C(=O)c2ccccn2)cc(OC)c1OC | > 1000 nM | > 1000 nM | > 1000 nM | > 1000 nM | > 1000 nM | > 1000 nM
COc1cc(C(=O)c2cc(F)cc(-c3ccc(C)c(O)c3)c2)cc(OC)c1OC | 220 nM | 30 nM | 67 nM | 86.4 nM | 47.2 nM | 25.2 nM
COc1cc(C(=O)c2cccc(-c3ccc([N+](=O)[O-])cc3)n2)cc(OC)c1OC | 9 nM | 10.9 nM | 11.4 nM | 5 nM | 6.9 nM | 12.9 nM
CCc1ccc(-c2cccc(C(=O)c3cc(OC)c(OC)c(OC)c3)n2)cc1 | 21 nM | 17.5 nM | 19.5 nM | 22.4 nM | 16.5 nM | 18.3 nM

SMILES | IC50 (MDA-MB-231) | IC50 (M14) | IC50 (A-375) | IC50 (SK-BR-3) | IC50 (MDA-MB-453) | IC50 (RPMI-7951)
COc1cc(C(=O)c2cccc(-c3ccncc3)n2)cc(OC)c1OC | > 1000 nM | > 1000 nM | > 1000 nM | > 1000 nM | > 1000 nM | > 1000 nM
COc1cc(C(=O)c2cccc(-c3ccc4[nH]c5ccccc5c4c3)n2)cc(OC)c1OC | 424 nM | 293 nM | 277 nM | 321 nM | 301 nM | 202 nM
COc1cc(C(=O)c2cccc(-c3ccnc4ccccc34)n2)cc(OC)c1OC | > 1000 nM | > 1000 nM | > 1000 nM | > 1000 nM | > 1000 nM | > 1000 nM
COc1cc(C(=O)c2cccc(-c3cc[nH]c3)n2)cc(OC)c1OC | 41 nM | 45.1 nM | 46.6 nM | 51.2 nM | 33.9 nM | 45.2 nM
COc1cc(C(=O)c2cccc(-c3cccc(N)c3)n2)cc(OC)c1OC | 34.7 nM | 25.9 nM | 41.8 nM | 38.9 nM | 25.2 nM | 20.1 nM
COc1cc(C(=O)c2cccc(-c3ccc(C)c(Cl)c3)n2)cc(OC)c1OC | 20 nM | 16.6 nM | 24.2 nM | 13.4 nM | 13.5 nM | 22.6 nM
COc1cc(C(=O)c2cccc(-c3ccc(N)cc3)n2)cc(OC)c1OC | 27.1 nM | 12.1 nM | 13.2 nM | 16.2 nM | 13.4 nM | 9.4 nM
COc1ccc(-c2cccc(C(=O)c3cc(OC)c(OC)c(OC)c3)n2)cc1 | 50.7 nM | 27.4 nM | 27.8 nM | 19.9 nM | 18.1 nM | 32.1 nM
COc1cc(C(=O)c2cccc(-c3cccc([N+](=O)[O-])c3)n2)cc(OC)c1OC | 328 nM | 87.9 nM | 311 nM | 736 nM | 881 nM | 54.7 nM
COc1cc(C(=O)c2cccc(-c3cccc(C)c3)n2)cc(OC)c1OC | 82.4 nM | 46.1 nM | 62.9 nM | 61 nM | 63.6 nM | 60.7 nM
COc1cc(C(=O)c2cccc(-c3cc(OC)c(OC)c(OC)c3)n2)cc(OC)c1OC | > 1000 nM | > 1000 nM | > 1000 nM | > 1000 nM | > 1000 nM | > 1000 nM
COc1cc(C(=O)c2cccc(-c3ccccc3C)n2)cc(OC)c1OC | 91.9 nM | 27.4 nM | 52.5 nM | 68 nM | 58.3 nM | 54.2 nM
COc1cc(C(=O)c2cncc(-c3ccc(C)c(O)c3)c2)cc(OC)c1OC | 66.3 nM | 57.1 nM | 60.6 nM | 62.7 nM | 64.8 nM | 63.6 nM
COc1cc(C(=O)c2cccc(-c3c(C)cc(C)cc3C)n2)cc(OC)c1OC | > 1000 nM | > 1000 nM | > 1000 nM | > 1000 nM | > 1000 nM | > 1000 nM
COc1cc(C(=O)c2cccc(-c3ccc(C)c(C)c3)n2)cc(OC)c1OC | 20 nM | 8.1 nM | 9 nM | 8.8 nM | 15.8 nM | 8.4 nM
COc1cc(C(=O)c2cccc(-c3ccc(O)cc3)n2)cc(OC)c1OC | 27.7 nM | 28.9 nM | 42.4 nM | 386 nM | 28.5 nM | 22.2 nM
